The record followed here is article PMC10416055, “Structural basis of bidirectional allostery across the heme in a cytochrome P450 enzyme” (The Journal of Biological Chemistry, 2023).

The assay relates to CYP121.

On to `CC(=O)N1CCN(c2ccc(OCC3COC(Cn4ccnc4)(c4ccc(Cl)cc4Cl)O3)cc2)CC1` (centres unmarked) [ketoconazole], for which the “absorbance (Soret peak) of ligand-bound CYP121” value amounted to 421 nm.

For `Clc1ccccc1C(c1ccccc1)(c1ccccc1)n1ccnc1` [clotrimazole], the “absorbance (Soret peak) of ligand-bound CYP121” value stood at 424 nm.
